Where a name gives a salt, the structure may show the parent alone.
Experiment: Thermal stability at 110° C. in an open flask (HPLC purity)
Assay type: physicochemical
Method: The thermal stability of the delta form at 110° C. in an open flask was compared to that of forms from the prior art.

[1] = 76 hours at 110° C., open flask
[2] = t = 0, before heating (baseline of the thermal stability test)

SMILES | HPLC purity (%) [1] [%] | HPLC purity (%) [2] [%] | Thermal stability compared to the other known forms (110° C., open flask)
CCC[C@H](N[C@@H](C)C(=O)N1[C@H](C(=O)O)C[C@@H]2CCCC[C@@H]21)C(=O)OCC.N=C(N)NCCC[C@H](N)C(=O)O [Form obtained according to the process of SI 23001] | 86.9 | 99.1 | –
CCC[C@H](N[C@@H](C)C(=O)N1[C@H](C(=O)O)C[C@@H]2CCCC[C@@H]21)C(=O)OCC [perindopril L-arginine salt] | 99.5 | 99.7 | improved thermal stability
CCC[C@H](N[C@@H](C)C(=O)N1[C@H](C(=O)O)C[C@@H]2CCCC[C@@H]21)C(=O)OCC.N=C(N)NCCC[C@H](N)C(=O)O [β form according to EP 2 016 051] | 98.3 | 99.6 | –
CCC[C@H](N[C@@H](C)C(=O)N1[C@H](C(=O)O)C[C@@H]2CCCC[C@@H]21)C(=O)OCC.N=C(N)NCCC[C@H](N)C(=O)O [α form according to EP 1 989 182] | 98.8 | 99.8 | –
CCC[C@H](N[C@@H](C)C(=O)N1[C@H](C(=O)O)C[C@@H]2CCCC[C@@H]21)C(=O)OCC.N=C(N)NCCC[C@H](N)C(=O)O [γ form according to WO 2009/157018] | 93.4 | 99.7 | –

— patent US8835652B2, “Delta crystalline form of the arginine salt of perindopril, a process for its preparation, and pharmaceutical compositions containing it” (Les Laboratoires Servier, priority 2012, dated 2014)
